Measured values as given in US20240033737A1, “DEVICES AND METHODS FOR CONTINUOUS DIELECTROPHORESIS CELL SORTING TO ISOLATE DIFFERENT POPULATIONS OF CELLS, AND APPLICATIONS THEREOF” (The Regents of the University of California, priority 2022, published 2024).

Experiments:
Assay type in all cases: cell-based
D54 cells [1] = test: XTT assay of cell numbers after plating and growth for 2 days; details: 5 μM ROCKi in DEP buffer vs DEP buffer without ROCKi, 6-hour incubation
Procedure: (§1) FIG. 2A-D presents optimization of buffer conditions for DEP-based sorting of GBM cells. (A) Viability of D54 cells immediately after 6-hour RT incubation in regular growth media, DEP buffer, or DEP buffer supplemented with 5 μM ROCKi was measured by trypan blue staining. […] (B) After 6-hour incubation in media or buffers, D54 cells were plated in normal growth conditions and the number of cells measured after 2 days by XTT assay. […] Acutely isolated cells (Media control, 0 h) served as a control. (D) D54 cells were plated after 6-hour incubation in buffers and after 1 day were exposed to TMZ to assess TMZ resistance. TMZ IC50 is shown as fold change relative to media control, 0 h, and no difference in TMZ resistance was detected across samples. Error bars show SD. N≥3, one-way ANOVA, Tukey post hoc for multiple comparisons, *p<0.05, **p<0.01, ***p<0.001, ****p<0.0001.
D54 cell viability studies conducted with a modified DEP buffer that included ROCKi. ROCK inhibitor (ROCKi) was included in the DEP buffer at concentrations ranging from 1-10 μM. […] Addition of 5 μM ROCKi to the DEP buffer improved D54 acute viability, as assessed by trypan blue staining, and led to greater than 90% viable cells (see FIG. 2A). An XTT assay was used to measure cell numbers after plating and growth for 2 days.

D54 cells [2] = test: Recovery of adherent cells after buffer incubation and plating (phase contrast imaging, confluency by ImageJ); details: 5 μM ROCKi in DEP buffer, 6 hours incubation, among DEP buffers, N=1
Procedure: (A) Schematic describes experimental paradigm to test D54 viability after incubation in cell culture media or DEP buffer. Adherent D54 cells were dissociated then resuspended in media or DEP buffer and incubated on ice or at room temperature (RT). Cell viability was tested immediately after incubation by trypan blue. Equivalent numbers of cells were plated per condition and adherent cells observed after 1-2 days by phase contrast microscopy to assess cell recovery. (B) Cell viability after 6-hour incubation remained high for all conditions. Viability of D54 cells in DEP buffer may be slightly lower than that of cells in media. N=1. […]
(§2) DEP buffer (DB): 8.5% w/v sucrose, 0.3% w/v glucose, 0.725% RPMI. […] (B) Cells were plated after incubation and the confluency (% culture surface area covered by cells) of adherent cells measured 1 day later using ImageJ. […]
(§3) Assessing the viability of D54 cells in a DEP buffer used for sorting mouse and human neural stem and progenitor cells. […] Further, the effect of temperature of the buffer (ice or room temperature) on cell viability was also evaluated. […] After the 6-hour buffer incubation, the cells were plated under normal growth conditions and assessed by phase contrast imaging 1-2 days later to assess cell survival and growth. […]

D54 cells [3] = test: TMZ resistance (TMZ IC50 fold change) of cells plated after buffer incubation; details: 5 μM ROCKi in DEP buffer; cells plated in normal growth medium without ROCKi
Procedure: as §1
(A) Viability of D54 cells immediately after 6-hour incubation in regular growth media, DEP buffer, or DEP buffer supplemented with 1, 5, or 10 μM ROCKi was measured by trypan blue staining. Acutely isolated cells (Media control, 0 h) served as a control. […] (C) There was no significant difference in the diameters of D54 cells in any of the conditions. (D) There was no significant difference in TMZ resistance as measured by fold change in IC50 relative to acutely isolated cells (Media control, 0 h). Error bars show SD. […]

D54 cells [4] = test: D54 viability by trypan blue staining immediately after incubation in media or DEP buffer; details: for viability in the DEP buffer: 6-hour incubation
Procedure: (A) Schematic describes experimental paradigm to test D54 viability after incubation in cell culture media or DEP buffer. Adherent D54 cells were dissociated then resuspended in media or DEP buffer and incubated on ice or at room temperature (RT). Cell viability was tested immediately after incubation by trypan blue. Equivalent numbers of cells were plated per condition and adherent cells observed after 1-2 days by phase contrast microscopy to assess cell recovery. (B) Cell viability after 6-hour incubation remained high for all conditions. Viability of D54 cells in DEP buffer may be slightly lower than that of cells in media. N=1. (C) Phase-contrast images of D54 cells stained with trypan blue after 6-hour incubation show high cell viability and increased clustering of cells incubated in media at RT. (D) Phase contrast images of adherent D54 cells one day after 6-hour incubation in media or DEP buffer. Cells incubated in media at RT show the best recovery, indicated by cell number and cell morphology. (E) Phase contrast images of adherent D54 cells one day after 0-6 hour incubation in media or DEP buffer. Cell recovery decreases with increasing incubation time in DEP buffer.
as §1, with “N≥3, one-way ANOVA, Tukey post hoc for multiple comparisons, *p<0.05, **p<0.01, ***p<0.001, ****p<0.0001.” left out
(A) Viability of D54 cells immediately after 6-hour incubation in regular growth media, DEP buffer, or DEP buffer supplemented with 1, 5, or 10 μM ROCKi was measured by trypan blue staining. […]
as §2, §3

## C[C@@H](N)[C@H]1CC[C@H](C(=O)Nc2ccncc2)CC1 [ROCKi, Y27632]
D54 cells [1]
  cell numbers after plating and growth for 2 days (XTT): significantly increased cell numbers
D54 cells [2]
  confluency of adherent cells 1 day after plating: the most confluency
D54 cells [3]
  TMZ resistance (fold change in TMZ IC50): did not alter TMZ resistance
D54 cells [4]; 1 μM ROCKi in DEP buffer
  viability in the DEP buffer: improved viability
D54 cells [4]; 5 μM ROCKi in DEP buffer, 6-hour RT incubation
  viable cells (acute viability, trypan blue): greater than 90%
D54 cells [4]; 5 μM ROCKi in DEP buffer
  viability in the DEP buffer: improved viability
D54 cells [4]; ROCKi in DEP buffer at 1-10 μM
  best concentration for D54 cell viability: 5 µM
